Tests used:
Format in all cases: cell-based
[1] = test system: human fibrosarcoma cells HT-1080; assay: Anti-fibrosis activity test: inhibition of proliferation of human fibrosarcoma cells HT-1080 (CCK-8); settings: Homo sapiens, HT-1080, 48 h
In short: (§1)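 Using CCK-8 colorimetry (450 nm), the study assessed growth inhibition after 48 h compound exposure; plating density was 2×10^4 cells/mL with 24 h attachment beforehand. IC50 was calculated from (1−Ai/Ao)×100%.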

[2] = test system: human lung fibroblasts HFL1; assay: Anti-fibrosis activity test: inhibition of proliferation of human lung fibroblasts HFL1 (CCK-8); settings: Homo sapiens, HFL1, 48 h
In short: as §1

BHK-21 cells = assay: Anti-fibrosis activity test: inhibition of BHK-21 cell proliferation (CCK-8); settings: Mesocricetus auratus, BHK-21, 48 h
In short: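 Proliferation inhibition was read as CCK-8 absorbance at 450 nm (2-hour development) relative to untreated blank, with IC50 fitted from the curve. Before that, adhered cells (2×10^4 cells/mL, 24 hours) had 48 hours' treatment at several concentrations, in triplicate, at 37° C/5% CO2; pirfenidone was the reference.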

[3] = test system: cardiac fibroblast RAT-iCell-C002; assay: Anti-fibrosis activity test: inhibition of proliferation of cardiac fibroblast RAT-iCell-C002 (CCK-8); settings: Cardiac fibroblast, 48 h
In short: as §1

[4] = test system: mouse macrophages (RAW264.7); assay: Lipopolysaccharide-induced NO secretion in macrophages (Griess); settings: Mus musculus, RAW264.7, 24 h, RAW264.7, LPS 1 μg/ml, a/b isomers given as first/second symbol, read-out: IC50 (μM), inhibition of lipopolysaccharide-induced NO secretion in macrophages
In short: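 Indomethacin and resveratrol served as positive controls while compounds were tested across concentrations on LPS-stimulated (1 μg/ml, 24 h) RAW264.7 cells. NO output was quantified colorimetrically (Griess, 548 nm).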

[5] = test system: human embryonic lung fibroblast IMR-90; assay: Anti-fibrosis activity test: inhibition of proliferation of human embryonic lung fibroblast IMR-90 (CCK-8)
In short: as §1

[6] = test system: human dermal fibroblasts CCC-ESF-1; assay: Anti-fibrosis activity test: inhibition of proliferation of human dermal fibroblasts CCC-ESF-1 (CCK-8); settings: Fibroblast
In short: as §1

NF-κB = assay: Immunological activity test: inhibition of NF-κB activity; settings: initial concentration of 30 μM; a/b isomers given as first/second symbol; read-out: IC50 (μM), inhibitory activity against NF-κB
In short: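 Initial screen at 30 μM; parthenolide positive control. IC50s derived from follow-up analysis.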

[7] = test system: human hepatic stellate cells LX-2; assay: Anti-fibrosis activity test: inhibition of proliferation of human hepatic stellate cells LX-2 (CCK-8); settings: Homo sapiens, 48 h
In short: as §1

[8] = human fibrosarcoma cells HT-1080, CCK-8, 48 hours
[9] = human lung fibroblasts HFL1, CCK-8, 48 hours
[10] = CCK-8, 48 hours after administration
[11] = cardiac fibroblast RAT-iCell-C002, CCK-8, 48 hours
[12] = human embryonic lung fibroblast IMR-90, CCK-8, 48 hours
[13] = human dermal fibroblasts CCC-ESF-1, CCK-8, 48 hours
[14] = human hepatic stellate cells LX-2, CCK-8, 48 hours
[15] = Homo sapiens, IMR-90 cells, 48 h, CCK-8
[16] = Homo sapiens, CCC-ESF-1 cells, 48 h, CCK-8

Structure (SMILES)	IC50 [1, 8] [mM]	IC50 [2, 9] [mM]	IC50 (BHK-21 cells; [10]) [mM]	IC50 [3, 11] [mM]	IC50 [4] [µM]	IC50 [5, 12] [mM]	IC50 [6, 13] [mM]	IC50 (NF-κB) [µM]	IC50 [7, 14] [mM]	IC50 ([1]; HT-1080 cells, 48 h, CCK-8) [mM]	IC50 ([2]; HFL1 cells, 48 h, CCK-8) [mM]	IC50 (BHK-21 cells; 48 h, CCK-8) [mM]	IC50 ([3]; RAT-iCell-C002 cells, CCK-8) [mM]	IC50 [5, 15] [mM]	IC50 [6, 16] [mM]	IC50 ([7]; LX-2, 48 h, LX-2 cells, CCK-8) [mM]
O=C1c2c(nc3ccccc3c2OCc2ccc(F)cc2Cl)-c2cccn21 [Compound 572b, 9-((2-chloro-4-fluorobenzyl)oxy)-10H-pyrrolizino[1,2-b]quinolin-10-one]	0.05 to 5	0.05 to 5	0.05 to 5	0.05 to 5	1 to 10	0.05 to 5	0.05 to 5	1 to 10	0.05 to 5							
O=C1c2c(nc3ccccc3c2OCc2ccc(F)cc2)-c2cccn21 [Compound 588b, 9-((4-fluorobenzyl)oxy)-10H-pyrrolizino[1,2-b]quinolin-10-one]	0.05 to 5	0.05 to 5	0.05 to 5	0.05 to 5	1 to 10	0.05 to 5	0.05 to 5	1 to 10	0.05 to 5							
O=C1c2c([nH]c3cc(N4CCNCC4)ccc3c2=O)-c2cccn21 [Compound 319a, 6-(piperazin-1-yl)-9H-pyrrolizino[1,2-b]quinoline-9,10(4H)-dione]	0.05 to 5	0.05 to 5	0.05 to 5	0.05 to 5	1 to 10	0.05 to 5	< 0.05	1 to 10	0.05 to 5							
O=C1c2c(nc3cc(O)ccc3c2O)-c2cccn21 [Compound 524b, 6,9-dihydroxy-10H-pyrrolizino[1,2-b]quinolin-10-one]	0.05 to 5	0.05 to 5	0.05 to 5	0.05 to 5	1 to 10	0.05 to 5	0.05 to 5	10 to 50	0.05 to 5							
O=C1c2c(n(Cc3ccccc3C(F)(F)F)c3ccccc3c2=O)-c2cccn21 [Compound 581a, 4-(2-(Trifluoromethyl)benzyl)-9H-pyrrolizino[1,2-b]quinoline-9,10(4H)-dione]	0.05 to 5	0.05 to 5	0.05 to 5	0.05 to 5	0.1 to 1	0.05 to 5	0.05 to 5	1 to 10	0.05 to 5							
O=C1c2c(n(CCN3CCCCC3)c3ccccc3c2=O)-c2cccn21 [Compound 665a, 4-(2-(Piperidin-1-yl)ethyl)-9H-pyrrolizino[1,2-b]quinoline-9,10(4H)-dione]					1 to 10			0.1 to 1		0.05 to 5	0.05 to 5	0.05 to 5	0.05 to 5	0.05 to 5	0.05 to 5	< 0.05
O=C1c2c(n(Cc3cccc(C(F)(F)F)c3)c3ccccc3c2=O)-c2cccn21 [Compound 598a, 4-(3-(Trifluoromethyl)benzyl)-9H-pyrrolizino[1,2-b]quinoline-9,10(4H)-dione]	0.05 to 5	0.05 to 5	0.05 to 5	0.05 to 5	1 to 10	0.05 to 5	0.05 to 5	1 to 10	0.05 to 5							
N#Cc1ccccc1-c1ccc(COc2c3c(nc4ccccc24)-c2cccn2C3=O)cc1 [Compound 648b, 4′-(((10-oxo-10H-pyrrolizino[1,2-b]quinolin-9-yl)oxy)methyl)-[1,1′-biphenyl]-2-carbonitrile]	0.05 to 5	0.05 to 5	0.05 to 5	0.05 to 5	10 to 50	0.05 to 5	0.05 to 5	1 to 10	0.05 to 5							
O=C1c2c(nc3ccccc3c2OCc2cc(F)c(F)c(F)c2F)-c2cccn21 [Compound 587b, 9-((2,3,4,5-tetrafluorobenzyl)oxy)-10H-pyrrolizino[1,2-b]quinolin-10-one]	0.05 to 5	0.05 to 5	0.05 to 5	0.05 to 5	1 to 10	0.05 to 5	0.05 to 5	1 to 10	0.05 to 5							
O=C1c2c(nc3ccccc3c2OCc2ccccc2)-c2cccn21 [Compound 103b, 9-(benzyloxy)-10H-pyrrolizino[1,2-b]quinolin-10-one]	0.05 to 5	0.05 to 5	0.05 to 5	0.05 to 5	1 to 10	< 0.05	0.05 to 5	1 to 10	0.05 to 5							
Cc1cc(C)c2c(O)c3c(nc2c1)-c1cccn1C3=O [Compound 768b, 9-hydroxy-6,8-dimethyl-10H-pyrrolizino[1,2-b]quinolin-10-one]					1 to 10			1 to 10		0.05 to 5	0.05 to 5	0.05 to 5	0.05 to 5	0.05 to 5	0.05 to 5	0.05 to 5
O=C1c2c(nc3ccccc3c2OCCCN2CCOCC2)-c2cccn21 [Compound 663b, 9-(3-morpholinopropoxy)-10H-pyrrolizino[1,2-b]quinolin-10-one]	0.05 to 5	0.05 to 5	0.05 to 5	0.05 to 5	0.1 to 1	0.05 to 5	0.05 to 5	1 to 10	0.05 to 5							
O=C1c2c([nH]c3cc(F)ccc3c2=O)-c2cccn21 [Compound 488a, 6-Fluoro-9H-pyrrolizino[1,2-b]quinoline-9,10(4H)-dione]	0.05 to 5	0.05 to 5	0.05 to 5	0.05 to 5	10 to 50	0.05 to 5	0.05 to 5	1 to 10	< 0.05							
Cc1ccn2c1-c1c([nH]c3ccccc3c1=O)C2=O [Compound 797a, 1-Methyl-5H-pyrrolizino[2,1-b]quinoline-5,11(6H)-dione]					1 to 10			1 to 10		0.05 to 5	0.05 to 5	0.05 to 5	0.05 to 5	0.05 to 5	0.05 to 5	0.05 to 5
O=C1c2c(nc3ccc(F)cc3c2OCCc2ccccc2)-c2cccn21 [Compound 141b, 7-Fluoro-9-phenethoxy-10H-pyrrolizino[1,2-b]quinolin-10-one]	0.05 to 5	0.05 to 5	0.05 to 5	0.05 to 5	1 to 10	0.05 to 5	5 to 20	0.1 to 1	0.05 to 5							
O=C1c2c(n(C3CC3)c3ccccc3c2=O)-c2cccn21 [Compound 673a, 4-Cyclopropyl-9H-pyrrolizino[1,2-b]quinoline-9,10(4H)-dione]					1 to 10			1 to 10		0.05 to 5	0.05 to 5	< 0.05	0.05 to 5	0.05 to 5	0.05 to 5	0.05 to 5
O=C1c2c(n(Cc3ccc(OC(F)(F)F)cc3)c3ccccc3c2=O)-c2cccn21 [Compound 592a, 4-(4-(Trifluoromethoxy)benzyl)-9H-pyrrolizino[1,2-b]quinoline-9,10(4H)-dione]	0.05 to 5	0.05 to 5	0.05 to 5	0.05 to 5	1 to 10	0.05 to 5	0.05 to 5	1 to 10	0.05 to 5							
Cc1cc2n(c1)C(=O)c1nc3ccccc3c(O)c1-2 [Compound 798b, 11-hydroxy-2-methyl-5H-pyrrolizino[2,1-b]quinolin-5-one]					1 to 10			1 to 10		0.05 to 5	0.05 to 5	0.05 to 5	0.05 to 5	0.05 to 5	0.05 to 5	0.05 to 5
O=C1c2c(n(CCO)c3ccccc3c2=O)-c2cccn21 [Compound 11a, 4-(2-Hydroxyethyl)-9H-pyrrolizino[1,2-b]quinoline-9,10(4H)-dione]	0.05 to 5	0.05 to 5	0.05 to 5	0.05 to 5	1 to 10	0.05 to 5	0.05 to 5	1 to 10	0.05 to 5							
